Reference: patent publication US20260027073A1, “USE OF SMALL-MOLECULE COMPOUND HAVING NAPHTHYLAMINE STRUCTURE” (HANGZHOU PHECDAMED CO., LTD., priority 2023, published 2026)
Several values for one entry are separate records, joined by “and”; a condition that tells them apart may be missing. Identical values can stand only once.

How the values were obtained:
[1] = system: Natural Aging POF model (NA-POF); test: Natural aging ovarian insufficiency (NA-POF); format: in vivo, C57BL/6J mice; conditions: for body weight / ovarian coefficient / ovarian weight: FIG. 71; for serum E2 levels: FIG. 73
Description: The Natural Aging POF model (NA-POF) simulates conditions of progressive ovarian degeneration. Female C57BL/6J mice of 9-10 months of age were purchased and raised to 12 months old, and then the mice were randomly divided into three groups, namely, the control group (Control, 0.5% CMC-Na by oral gavage, n=8), the TJ01-013-treated group (TJ01-013, 30 mg/kg TJ01-013 by oral gavage, n=8), the I-14-1 treatment group (I-14-1, 30 mg/kg I-14-1 by oral gavage, n=8), and were administered daily for 30 days. At the endpoint of the experiment, body weight, ovarian weight, ovarian organ coefficient, serum hormone E2 and FSH levels in mice were measured. The body weight and bilateral ovarian wet weight of each group of mice were weighed with an electronic balance and an analytical balance respectively, and the ovarian organ coefficient of each group of mice was calculated according to the body weight of the mice (g) and the wet weight (mg) of the bilateral ovaries. […] After the experiment reached the end point, orbital blood collection was carried out, and the blood was centrifuged at 12000 g for 10 min after standing still at room temperature for 45 min, and the supernatant (serum) was taken, and the levels of E2 and FSH in serum were detected by ELISA.

[2] = system: Mouse Model of Chemotherapy-Induced POF; test: Chemotherapy (cyclophosphamide)-induced premature ovarian failure; format: in vivo, C57BL/6J mice; conditions: for body weight / ovarian coefficient (ratio of ovarian weight to body weight) / ovarian weight: 30 mg/kg oral gavage, FIG. 67; for serum FSH level / serum E2 level / BDNF level in ovarian tissues: 30 mg/kg; for serum FSH level: FIG. 68; for serum E2 level: FIG. 69; for BDNF level in ovarian tissues: FIG. 70; for effect of TJ01-013 compared with I-14-1: b553: ovarian coefficient, b560: FSH concentration, serum E2 level and BDNF level
Description: Eight-week-old C57BL/6J mice (weighing about 20-25 g) were selected and adaptively fed for 7 d firstly, after which they were randomly divided into three groups according to their body weights, namely, the control group (Control, n=8), the model group (Cy, treated with the solvent 0.5% CMC-Na, n=8), and the TJ01-013 treatment group (Cy+TJ01-013, 30 mg/kg TJ01-013 by oral gavage, n=8). kg TJ01-013, n=8), I-14-1 treatment group (Cy+I-14-1, 30 mg/kg I-14-1 by oral gavage, n=8). The model group and the TJ01-013 treatment group received a single intraperitoneal injection of cyclophosphamide (75 mg/kg, 200-300 μl), and the control group received a single intraperitoneal injection of an equal volume of saline. Samples were collected after 12 days of administration, and body weights, ovary weights, and levels of the serum hormones E2 and FSH of the mice were measured.
The body weight and bilateral ovarian wet weight of each group of mice were weighed with an electronic balance and an analytical balance respectively, and the ovarian organ coefficient of each group was calculated according to the body weight of mice (g) and bilateral ovarian wet weight (mg). The formula is: […]
After the experiment reached the end point, blood was collected from the orbit, and the blood was centrifuged at 12,000 g for 10 min after standing still at room temperature for 45 min, and the supernatant (serum) was taken, and the levels of E2, FSH and BDNF in serum were detected by ELISA.
The mice were euthanized after reaching the end point of the experiment, and the levels of BDNF in the ovarian tissues were assayed by ELISA after the ovaries were extracted and ground.

[3] = system: rats of type I diabetes nephropathy model; test: Kidney injury induced by type 1 diabetic nephropathy (STZ); format: in vivo, SD rats
Description: 150-170 g SD male rats were fasted but not deprived of water for 12 h before surgery, and a longitudinal incision was made at the intersection of the lower edge of the right rib arch, which was about 1 cm long. Then the three layers of skin, mucous membrane, and muscle were separated layer by layer to expose the perinephric fat, and the perinephric fat was clamped by hemostatic forceps and lifted upward to expose the right kidney, and the right kidney pedicle was ligated and the right kidney was resected, and after no hemorrhage was checked, the tissues were sutured layer by layer. One week after surgery, 1% streptozotocin (STZ) 50 mg/kg was injected intraperitoneally in a volume of […]. Rats in the sham group only had the abdominal cavity opened, the right renal adipose capsule was peeled off, and the right kidney was not resected; the abdominal cavity was closed, the incision was sutured and an equal volume of citrate solution was injected into the tail vein one week later.
Random blood glucose was measured 72 h after STZ injection, and blood glucose ≥16.65 mmol/L was considered as successful diabetes modeling. The successful modeling rats were selected to continue to be fed with normal chow and free water. […] The experiment was divided into sham group (sham group, without STZ modeling and given vehicle by oral gavage), Control group (model control group, STZ modeling and given vehicle treatment by oral gavage), and 15 mg/kg I-1 group (STZ modeling and given 15 mg/kg I-1 by oral gavage), and the dosage of the drug was administered once a day in the volume of 10 ml/kg for 27 days. […] At the end point of the experiment, the rats were euthanized, the kidneys were removed after dissection, and four kidneys were taken to be fixed with 4% paraformaldehyde for 48 h, paraffin-embedded, sectioned and HE stained, and the specific staining procedure was as described above.

O=C(O)C[S+]([O-])c1cc(NS(=O)(=O)c2ccc(C(F)(F)F)cc2)c2ccccc2c1O (centres unmarked) [I-14-1]
body weight ([1]; 30 mg/kg daily 30 days): no significant change | ovarian coefficient ([1]; 30 mg/kg daily 30 days): rising trend | ovarian weight ([1]; 30 mg/kg daily 30 days): significantly elevated | serum E2 levels ([1]; 30 mg/kg daily 30 days): increased significantly | body weight [2]: no significant change | ovarian coefficient (ratio of ovarian weight to body weight) [2]: significantly elevated | ovarian weight [2]: significantly elevated | serum FSH level [2]: significantly decreased | serum E2 level [2]: increased significantly | BDNF level in ovarian tissues [2]: increased significantly

O=C(O)C[S+]([O-])c1cc(NS(=O)(=O)c2ccc(Br)cc2)c2ccccc2c1O (centres unmarked) [I-1]
body weight ([1]; 30 mg/kg daily 30 days): no significant change | ovarian coefficient ([1]; 30 mg/kg daily 30 days): significantly elevated | ovarian weight ([1]; 30 mg/kg daily 30 days): significantly elevated | serum FSH level ([1]; 30 mg/kg daily 30 days, FIG. 72): decreased significantly | serum E2 levels ([1]; 30 mg/kg daily 30 days): increased significantly | improvement of ovarian function, TJ0113 compared with I-14-1 ([1]; both 30 mg/kg): more effective | body weight [2]: no significant change | ovarian coefficient (ratio of ovarian weight to body weight) [2]: significantly elevated | ovarian weight [2]: significantly elevated | serum FSH level [2]: significantly decreased | serum E2 level [2]: increased significantly | BDNF level in ovarian tissues [2]: increased significantly | effect of TJ01-013 compared with I-14-1 ([2]; listed as TJ01-013): more effective | effect of TJ01-013 compared with I-14-1 ([2]; listed as TJ0113): better | body weight ([3]; 15 mg/kg oral gavage, 27 days, FIG. 14): trend of increasing body weight | blood glucose level ([3]; 15 mg/kg, 27 days, FIG. 16): no significant effect | 24-h urine protein level ([3]; 15 mg/kg, 27 days, FIG. 17): decrease in the 24-h urine protein level of rats, but there was no significant difference | serum creatinine level ([3]; 15 mg/kg, 27 days, P<0.5 [sic], FIG. 15): significantly decreased | degree of renal pathology (HE staining) ([3]; 15 mg/kg, 27 days, vs model group, FIG. 18): significant reduction | Renal lesion (number of kidneys, n = 4) ([3]; Degree of lesion + (mild lesions), 15 mg/kg): 3/4 and 3 | Renal lesion (number of kidneys, n = 4) ([3]; Degree of lesion ++ (moderate lesions), 15 mg/kg): 0 | Renal lesion (number of kidneys, n = 4) ([3]; Degree of lesion +++ (severe lesions), 15 mg/kg): 1/4 and 1 | Renal lesion (number of kidneys, n = 4) ([3]; Degree of lesion ± (slight lesions), 15 mg/kg): 0 | Renal lesion (number of kidneys, n = 4) ([3]; Degree of lesion − (no lesions), 15 mg/kg): 0

O=C(O)CSc1cc(NS(=O)(=O)c2ccc(Br)cc2)c2ccccc2c1O [UMI-77, reference compound]
protection against kidney injury in type 1 diabetes compared with I-1 group ([3]; UMI-77 vs I-1): less protective
